Active and inactive are the calls of the source. Rule as the data show it: actives have a measured IC50 and inactives only a lower limit.
target: Envelope glycoprotein gp160 (Human immunodeficiency virus 1, UniProt Q6QLK5); assay: cell-free HIV fusion peptide-binding blockers – biochemical, uHTS, fluorescence dequenching, […] (AID 1986)
Sequence (Q6QLK5 whole entry, the tested form may be a part): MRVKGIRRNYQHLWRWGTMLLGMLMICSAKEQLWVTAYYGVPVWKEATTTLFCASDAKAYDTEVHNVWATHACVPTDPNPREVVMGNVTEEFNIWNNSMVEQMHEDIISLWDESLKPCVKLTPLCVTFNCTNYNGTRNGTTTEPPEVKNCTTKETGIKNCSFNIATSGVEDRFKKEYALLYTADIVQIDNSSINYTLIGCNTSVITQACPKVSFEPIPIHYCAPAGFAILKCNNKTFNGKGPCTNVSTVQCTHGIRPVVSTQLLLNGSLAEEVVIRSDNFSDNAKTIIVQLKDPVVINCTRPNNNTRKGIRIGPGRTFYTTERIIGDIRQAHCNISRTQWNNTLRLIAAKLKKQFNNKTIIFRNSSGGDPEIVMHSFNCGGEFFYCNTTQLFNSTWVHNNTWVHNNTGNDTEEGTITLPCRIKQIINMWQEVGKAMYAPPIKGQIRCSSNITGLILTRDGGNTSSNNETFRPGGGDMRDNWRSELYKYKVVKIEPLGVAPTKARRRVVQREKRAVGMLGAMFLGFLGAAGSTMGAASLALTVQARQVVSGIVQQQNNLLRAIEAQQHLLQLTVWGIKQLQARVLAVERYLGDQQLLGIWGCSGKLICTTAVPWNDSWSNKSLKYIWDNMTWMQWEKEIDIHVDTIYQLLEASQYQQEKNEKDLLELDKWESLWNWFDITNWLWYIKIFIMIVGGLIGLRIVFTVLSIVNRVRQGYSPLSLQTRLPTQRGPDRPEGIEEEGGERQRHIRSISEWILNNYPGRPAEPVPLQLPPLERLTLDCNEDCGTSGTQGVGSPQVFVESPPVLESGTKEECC

SMILES	IC50
COC(=O)c1sc(-c2ccc(C(C)(C)C)cc2)cc1NC(=O)CSCC(=O)O	15.4 µM (active)
O=C(CCN1C(=O)/C(=C/c2ccccc2Cl)SC1=S)Nc1ccccc1C(=O)O	19.4 µM (active)
COc1cc(/C=C2\C(=N)N3N=C(S(C)(=O)=O)SC3=NC2=O)cc(OC)c1OCCOc1ccc(C)cc1	11 µM (active)
